For 21 compounds, T/C results are on record in PubChem BioAssay AID256 (DTP/NCI, 2004).

“And” between values parts separate entries of the source, which are not always exact repeats. Identical values can stand only once. Toxic doses and inconclusive results are not listed.

This test deals with CD2F1 mice, L1210 leukemia ip, survival T/C. Briefly: NCI In Vivo Anticancer Drug Screen. Data for tumor model L1210 Leukemia (intraperitoneal) in CD2F1 (CDF1) mice. The following applies: higher = longer survival. Put shortly: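 Implant tumor; dose compound or vehicle; measure endpoint in both groups; report treated divided by control.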
Where [1] appears, read: endpoint: mean survival time, dose: 100.0 mg/kg/injection, schedule: Q04DX003 (ip), vehicle: saline with Tween-80.
Setting [2] is: endpoint: mean survival time, dose: 200.0 mg/kg/injection, schedule: Q04DX003 (ip), vehicle: saline with Tween-80.
The mark [3] stands for this setting: endpoint: mean survival time, dose: 400.0 mg/kg/injection, schedule: Q04DX003 (ip), vehicle: saline with Tween-80.
[4] abbreviates: endpoint: mean survival time, dose: 100.0 mg/kg/injection, schedule: Q01DX001 (ip), vehicle: saline with Tween-80.
The mark [5] stands for this setting: endpoint: mean survival time, dose: 200.0 mg/kg/injection, schedule: Q01DX001 (ip), vehicle: saline with Tween-80.
The mark [6] stands for this setting: endpoint: mean survival time, dose: 100.0 mg/kg/injection, schedule: Q01DX009 (ip), vehicle: saline with Tween-80.
[7] abbreviates: endpoint: mean survival time, dose: 200.0 mg/kg/injection, schedule: Q01DX009 (ip), vehicle: saline with Tween-80.
The mark [8] stands for this setting: endpoint: mean survival time, dose: 25.0 mg/kg/injection, schedule: Q01DX001 (ip), vehicle: saline.
Where [9] appears, read: endpoint: mean survival time, dose: 50.0 mg/kg/injection, schedule: Q01DX001 (ip), vehicle: saline.
[10] abbreviates: endpoint: mean survival time, dose: 100.0 mg/kg/injection, schedule: Q01DX009 (ip), vehicle: saline.
Where [11] appears, read: endpoint: mean survival time, dose: 200.0 mg/kg/injection, schedule: Q01DX009 (ip), vehicle: saline.
Setting [12] is: endpoint: mean survival time, dose: 400.0 mg/kg/injection, schedule: Q01DX009 (ip), vehicle: saline with Tween-80.
[13] abbreviates: endpoint: mean survival time, dose: 50.0 mg/kg/injection, schedule: Q01DX009 (ip), vehicle: saline.

As for `CC1OC(=O)c2ccccc2S1=O` (centres undefined), the T/C is 98 % of control (endpoint: mean survival time, dose: 100.0 mg/kg/injection, schedule: Q01DX009 (ip), vehicle: saline sonified); 98 % of control under setting [1]; 97 % of control (endpoint: mean survival time, dose: 200.0 mg/kg/injection, schedule: Q01DX009 (ip), vehicle: saline sonified); 100 % of control under setting [2]; 97 % of control (endpoint: mean survival time, dose: 400.0 mg/kg/injection, schedule: Q01DX009 (ip), vehicle: saline sonified); 104 % of control under setting [3].
Regarding `O=C(Nc1ccc(C2=NCCN2)cc1)c1ccc(C(=O)Nc2ccc(C3=NCCN3)cc2)cc1`, the T/C was 103 % of control (endpoint: mean survival time, dose: 1.25 mg/kg/injection, schedule: Q01DX008 (iv), vehicle: other); 103 % of control (endpoint: mean survival time, dose: 2.5 mg/kg/injection, schedule: Q01DX008 (iv), vehicle: other); 108 % of control (endpoint: mean survival time, dose: 5.0 mg/kg/injection, schedule: Q01DX008 (iv), vehicle: other); 112 % of control (endpoint: mean survival time, dose: 50.0 mg/kg/injection, schedule: Q04DX003 (ip), vehicle: water); 153 % of control (endpoint: mean survival time, dose: 100.0 mg/kg/injection, schedule: Q01DX007 (ip), vehicle: water); 118 % of control (endpoint: mean survival time, dose: 100.0 mg/kg/injection, schedule: Q04DX003 (ip), vehicle: water). For the same compound, the T/C is 170 % of control (endpoint: mean survival time, dose: 200.0 mg/kg/injection, schedule: Q01DX007 (ip), vehicle: water) and 186 % of control (endpoint: mean survival time, dose: 200.0 mg/kg/injection, schedule: Q01DX009 (ip), vehicle: water).
Regarding `COC(=O)C1CSCC1=O` (centres undefined), the T/C reads like this: (endpoint: mean survival time, dose: 50.0 mg/kg/injection, schedule: Q01DX001 (ip), vehicle: saline with Tween-80) 97 % of control; under setting [4], 97 % of control; under setting [5], 103 % of control.
In the case of `CN(C)C(=O)c1ccc(Cl)c(Cl)c1`, the T/C reads like this: under setting [6], 102 % of control; under setting [7], 107 % of control.
With `NC1=NC(c2ccccc2)N(c2cccc(Cl)c2)C(N)=N1` (centres undefined), the T/C under setting [8] was 107 % of control; the T/C under setting [9] was 104 % of control; the T/C (endpoint: mean survival time, dose: 100.0 mg/kg/injection, schedule: Q01DX001 (ip), vehicle: saline) was 101 % of control.
In the case of `CCC1CCC(NC(=O)NC)CC1` (centres undefined), the T/C by setting is: under setting [1], 99 % of control; under setting [2], 92 % of control.
Consider `O=C(COc1ccccc1)Nc1ccc(Br)cc1`, for which the T/C is, setting by setting: (endpoint: mean survival time, dose: 100.0 mg/kg/injection, schedule: Q01DX001 (ip), vehicle: Klucel (hydroxypropylcellulose) (HPC)) 97 % of control; (endpoint: mean survival time, dose: 200.0 mg/kg/injection, schedule: Q01DX001 (ip), vehicle: Klucel (hydroxypropylcellulose) (HPC)) 105 % of control; (endpoint: mean survival time, dose: 400.0 mg/kg/injection, schedule: Q01DX001 (ip), vehicle: Klucel (hydroxypropylcellulose) (HPC)) 105 % of control.
With `O=C(O)C1C2CC(O)C(C2)C1C(=O)O` (centres undefined), the T/C is 97 % of control under setting [10]; 94 % of control (endpoint: mean survival time, dose: 100.0 mg/kg/injection, schedule: Q04DX003 (ip), vehicle: saline); 100 % of control under setting [11]; 94 % of control (endpoint: mean survival time, dose: 200.0 mg/kg/injection, schedule: Q04DX003 (ip), vehicle: saline); 97 % of control (endpoint: mean survival time, dose: 400.0 mg/kg/injection, schedule: Q01DX009 (ip), vehicle: saline); 95 % of control (endpoint: mean survival time, dose: 400.0 mg/kg/injection, schedule: Q04DX003 (ip), vehicle: saline).
In the case of `[Br][Sn]([Br])([c]1cccc2ccccc12)[c]1cccc2ccccc12`, the T/C was 105 % of control under setting [1], 109 % of control under setting [2] and 97 % of control under setting [3].
Regarding `N#C[Se]C[Se]C#N`, the T/C (endpoint: mean survival time, dose: 6.25 mg/kg/injection, schedule: Q01DX001 (ip), vehicle: saline with Tween-80) was 104 % of control.
In the case of `Cc1ncc(COP(=O)(O)O)c(C=NC(Cc2ccc(O)c(O)c2)C(=O)O)c1O.O.[Cu]` (centres undefined), the T/C (endpoint: mean survival time, dose: 12.5 mg/kg/injection, schedule: Q01DX001 (ip), vehicle: saline) was 100 % of control; the T/C under setting [8] was 93 % of control; the T/C under setting [9] was 86 % of control.
For `CN(C(=O)C(=O)c1ccccc1NC(=O)c1ccc(Cl)cc1)c1ccccc1`, the T/C is 102 % of control (endpoint: mean survival time, dose: 25.0 mg/kg/injection, schedule: Q04DX003 (ip), vehicle: Klucel (hydroxypropylcellulose) (HPC)); 106 % of control (endpoint: mean survival time, dose: 50.0 mg/kg/injection, schedule: Q04DX003 (ip), vehicle: Klucel (hydroxypropylcellulose) (HPC)); 104 % of control (endpoint: mean survival time, dose: 100.0 mg/kg/injection, schedule: Q04DX003 (ip), vehicle: Klucel (hydroxypropylcellulose) (HPC)).
Turning to `N#C/C(=C\C=C\c1cccc([N+](=O)[O-])c1)c1ccccc1`, the T/C under setting [4] is 96 % of control; the T/C under setting [6] was 100 % of control and 103 % of control; the T/C (endpoint: mean survival time, dose: 100.0 mg/kg/injection, schedule: Q04DX002 (ip), vehicle: saline with Tween-80) is 102 % of control; the T/C under setting [1] was 97 % of control; the T/C under setting [5] is 105 % of control; the T/C under setting [7] was 96 % of control and 107 % of control. Moreover, the T/C is 98 % of control (endpoint: mean survival time, dose: 200.0 mg/kg/injection, schedule: Q04DX002 (ip), vehicle: saline with Tween-80); 105 % of control under setting [2]; 97 % of control (endpoint: mean survival time, dose: 400.0 mg/kg/injection, schedule: Q01DX001 (ip), vehicle: saline with Tween-80); 94 % of control and 100 % of control under setting [12]; 100 % of control (endpoint: mean survival time, dose: 400.0 mg/kg/injection, schedule: Q04DX002 (ip), vehicle: saline with Tween-80); 94 % of control under setting [3].
With `COc1cc(/C=N\NC(C)=O)cc(OC)c1OC`, the T/C reads like this: under setting [1], 101 % of control; under setting [2], 95 % of control.
In the case of `O=C(O)C1C=CCC(C(=O)O)C1` (centres undefined), the T/C by setting is: under setting [13], 101 % of control; under setting [10], 97 % of control; under setting [11], 101 % of control.
Turning to `Cc1ccc(Cl)cc1NC(=O)CCl`, the T/C (endpoint: mean survival time, dose: 25.0 mg/kg/injection, schedule: Q01DX009 (ip), vehicle: saline with Tween-80) is 94 % of control; the T/C (endpoint: mean survival time, dose: 50.0 mg/kg/injection, schedule: Q01DX009 (ip), vehicle: saline with Tween-80) was 94 % of control; the T/C under setting [6] was 89 % of control and 96 % of control; the T/C under setting [1] was 101 % of control; the T/C under setting [2] is 95 % of control; the T/C under setting [3] was 97 % of control.
With `CCOC(=O)C(C(=O)OCC)C(C[N+](=O)[O-])c1ccccc1` (centres undefined), the T/C is 92 % of control under setting [13], 116 % of control under setting [10] and 96 % of control under setting [11].
As to `C[n+]1cccc(NC(=O)c2ccc(NC(=O)C34CCC(C(=O)Nc5ccc(C(=O)Nc6ccc[n+](C)c6)cc5)(CC3)CC4)cc2)c1`, the T/C runs as follows: (endpoint: mean survival time, dose: 2.5 mg/kg/injection, schedule: Q01DX009 (ip), vehicle: saline with Tween-80) 113 % of control; (endpoint: mean survival time, dose: 5.0 mg/kg/injection, schedule: Q01DX009 (ip), vehicle: saline with Tween-80) 123 % of control and 104 % of control; (endpoint: mean survival time, dose: 10.0 mg/kg/injection, schedule: Q01DX009 (ip), vehicle: saline with Tween-80) 110 % of control; (endpoint: mean survival time, dose: 20.0 mg/kg/injection, schedule: Q01DX009 (ip), vehicle: saline with Tween-80) 160 % of control; (endpoint: mean survival time, dose: 80.0 mg/kg/injection, schedule: Q01DX009 (ip), vehicle: saline with Tween-80) 108 % of control; (endpoint: median survival time, dose: 3.6 mg/kg/injection, schedule: Q01DX009 (ip), vehicle: saline with Tween-80) 106 % of control. Also, the T/C (endpoint: median survival time, dose: 16.67 mg/kg/injection, schedule: Q01DX009 (ip), vehicle: saline with Tween-80) is 264 % of control.
On to `COC1OC2COc3ccccc3OC2C(N)C1Nc1ccccc1` (centres undefined), for which the T/C is 101 % of control (endpoint: mean survival time, dose: 75.0 mg/kg/injection, schedule: Q01DX001 (ip), vehicle: saline with Tween-80); 101 % of control (endpoint: mean survival time, dose: 150.0 mg/kg/injection, schedule: Q01DX001 (ip), vehicle: saline with Tween-80); 100 % of control (endpoint: mean survival time, dose: 300.0 mg/kg/injection, schedule: Q01DX001 (ip), vehicle: saline with Tween-80).
`O=C(COc1ccccc1)N/N=C/c1cccc([N+](=O)[O-])c1`: the T/C was 89 % of control under setting [7] and 94 % of control under setting [12].
In the case of `COC1OC(COS(C)(=O)=O)C(OS(C)(=O)=O)C(OS(C)(=O)=O)C1OS(C)(=O)=O` (centres undefined), the T/C under setting [6] was 95 % of control, the T/C under setting [7] was 101 % of control and the T/C under setting [12] is 94 % of control.
